Test results reported in patent publication US20240241137A1, “METHOD FOR SELECTING A DRUG CANDIDATE FOR TREATING OR PREVENTING OR DELAYING THE ONSET OR PROGRESSION OF AN AMYLOIDOGENIC DISEASE” (NATIONAL HEALTH RESEARCH INSTITUTES, priority 2022, published 2024).
Entries after “also recorded” stand apart in the source; their conditions may differ. Counter-ions that a name gives are not always drawn. Values belong to the molecule of their own block, whether it stands above or below them.

Assays:
[1] = target: LPS-Aβ42 complex (Homo sapiens, UniProt P05067); assay: Real-time mass-sensitive measurement (QCM-D) of the non-equilibrium oscillation between LPS and Aβ42; assay type: binding; details: for effect on the oscillatory event (lifetime) of the LPS-Aβ42 complex: bait in combination with LPS, Aβ42 100 μM, baits 20 μM; for time (apparent lifetime of the non-equilibrium interaction): mass dropping from 80% to 20%
Chain of LPS-Aβ42 complex (P05067 672-713 limits assumed, one chain of several): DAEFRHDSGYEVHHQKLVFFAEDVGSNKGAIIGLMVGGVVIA
Description: The lifetime of each sample was indicated in colored lines.
A real-time mass-sensitive measurement strategy involving quartz crystal microbalance with dissipation explorer (QCM-D) and single-channel module (Q-Sense, Biolin Scientific, Vastra Frölunda, Sweden) was used to evaluate the non-equilibrium interaction between Aβ42 and two baits (LPS and natural compounds). In addition, the steady-state circular dichroism and fluorescence spectra upon excitation of tryptophan at different temperatures were recorded to reveal the secondary structures of Aβ42 in the presence and absence of LPS. The fluorescent T jump system was utilized to confirm the adsorbing capability of LPS to Aβ42 by reading the corresponding protein dynamics. The detailed methods and materials are described as follows.
Preparation of the first bait: A solution of 0.1 mM MCL-NHS and LPS at a ratio of 1:1 was mixed in DI water. The mixture was cooled at 25° C. overnight (please refer to linker modification in the following), which spontaneously allowed the conjugation of the amine group of LPS and NHS-activated carboxylic acid of MCL. Owing to the structural complexity, it was difficult to validate the amide bond formation between MCL-NHS and LPS via NMR identification (FIG. 1). Nevertheless, the supramolecular host-guest recognition between LPS and colistin (a cyclic peptide) was used to identify the existence of MCL-modified LPS (first bait). The details of the mass-sensitive measurement are described in the next section.
Linker modification: The conjugation of the first bait (LPS) and linker (3-mercaptopanyl-n-hydroxysuccinimide ester) was mixed together for overnight reaction before anchoring on the gold sensor. The linker may be linked to one or two —NH2 groups in the core oligosaccharide part of LPS.
Real-time mass-sensitive measurement: Quartz crystal microbalance with dissipation explorer (QCM-D) and single-channel module (Q-Sense™, BIOLIN SCIENTIFIC®, Vastra Fralunda, Sweden) was used to evaluate the non-equilibrium interaction between Aβ42 and two baits (LPS and natural compounds). Prior to use, the new and reused gold sensors (a circle shape with a diameter of 1.0 cm, Q-Sense Sensors™, BIOLIN SCIENTIFIC®) were precleaned using a UV/ozone cleaner and piranha solution, which was a mixture of 30% H2O2 and concentrated H2SO4 at 1:3 (v/v). This piranha solution reacts violently with organic materials and should be handled with great care and protection. After washing of the gold sensors with LPS-free DI water, the first bait was initially inputted in a flow model at a flow rate of 0.15 mL/min under 25° C., which could be immediately anchored on a clean gold sensor. We conducted all measurements by switching between the continuous flowing model (CFM) and flowing-to-soaking model (FSM) after washing; the CFM maintained the same flow rate (0.15 mL/min), and the FSM allowed the flow velocity to slow down or completely stop. A sampling interval of 0.3 s was used to collect each frequency readout at seven overtones […], while the quartz crystal resonator of the QCN-D system settled at a fundamental resonant frequency (5 MHz). The Q-Sense system was utilized in addition to the following Sauerbrey equation to obtain the third overtone (n=3) and calculate the mass change after measurement.
where Δm is the change in the adsorbed mass of molecules; Δf is the time-responded frequency observed at the third overtone; and C is a constant that is equal to 17.7 ng/cm^2 at the resonance frequency of the quartz oscillator (5 MHz). The equation (Eq. S1) allows a direct quantitative study for mass comparison.
Operation of a real-time sensing platform: To perform the measurements, the LPS-free DI water and other solvents were allowed to continuously flow for about 1 h at 25° C. or until the baseline of two parameters (frequency and dissipation of QCM-D) reached an equilibrium state before sample operation and data collection. […]

[2] = test system: SH—SY5Y cells; assay: Western blot of residual Aβ42 levels (clearance of Aβ42 by neuronal cells); assay type: cell-based; details: co-treatment with low-dose LPS, 72 h
Description: The cell mixture samples were analyzed via 12% SDS-PAGE gel electrophoresis and transferred to a PVDF membrane. […] After hybridization with the primary antibody, the membrane was washed thrice with PBST before the addition of an HRP-conjugated secondary antibody against the primary antibody. The membrane was then washed thrice with PBST before immunoreactive bands were detected by UVP ChemStudio touch ([…] JENA®). The primary antibodies used in this study included the following: anti-Aβ (6E10, BIOLEGEND® 803001), anti-actin ([…]®), and anti-GAPDH (GTX100118). Signal intensity was analyzed using VisionWorks 9.1 and statistically analyzed using GraphPad Prism 9.

[3] = test system: SH—SY5Y neuronal cells; assay: Cell viability (CCK8) of Aβ42-treated neuronal cells; details: for rescue of Aβ42-induced cell death by small baits alone: without co-treatment with LPS; for rescue effect of Aβ42-induced cell apoptosis: co-treatment with low dose (10 nM) LPS, bait 1, 10, 50, 100 μM, versus LPS alone
Description: Cell viability: Neuronal cells were maintained in MEM (GIBCO® 51200-038) supplemented with 10% FBS, 1×MEM NEAA (GIBCO® 11140-050), 1×L-glutamine (GIBCO® 25030-081), and 1×sodium pyruvate (GIBCO® 1136-070). Neuronal SH—SY5Y cells were plated at a density of 8,000 cells per well in 96-well plates and allowed to attach overnight at 37° C. in 5% CO2 humidified air. Aβ42 (100 μM), LPS (10 nM), CS (100 μM), EG (100 PM), and morin (100 μM) were then added to each medium containing 2.5% dimethyl sulfoxide and sterilized using UV light. Thereafter, the solution containing Aβ42 and LPS was mixed with CS, EG, or morin at different concentrations ranging from 1 to 100 μM and added into the plate of the SH—SY5Y cells. The medium was then replaced, and the remaining mixture was incubated for 72 h at 37° C. in 5% CO2 humidified air. Cell viability was measured using the CCK8 (SIGMA-ALDRICH® 96992) assay according to the manufacturer's protocol. Before the Aβ42 treatment of Neuronal SH—SY5Y cells, a 30 k filter was used to remove unbound LPS from the LPS-insulted Aβ42 mixture.

[4] = target: T1, Aβ42 (Homo sapiens, UniProt P05067); assay: Circular dichroism of Aβ42 and LPS-Aβ42; details: Aβ42 96 μM, LPS 160 nM, 25° C.
T1 sequence (P05067 672-713 limits assumed): as the sequence (P05067 672-713 limits assumed, one chain of several) above
Description: Circular dichroism (CD): Approximately 300 μL of (96 μM) and mixtures of Aβ42 (96 μM) and LPS (160 nM) were loaded into a quartz cuvette of an optical length of 1 mm (110-1-40, HELLMA ANALYTICS®) and measured using a spectrometer equipped with a thermostat (Model 410, AVIV BIOMEDICAL®, Inc.) in 190-260 nm at 25° C. with a spectral resolution of 1 nm.

[5] = target: T1, Aβ42; assay: Fluorescent T jump protein dynamics of Aβ42 and LPS-Aβ42; details: two-state model analysis upon T jump
Description: A fluorescent T jump system was constructed on the basis of a previous report (Yang, C. T., Chu, L. K. Phys. Chem. Chem. Phys. 2022, 24, 11079-11085), with slight modification. The aqueous solutions were sandwiched by two quartz windows (diameter=25 mm, thickness=2 mm, #14-962, EDMUND OPTICS®) separated by a drilled Teflon spacer of a thickness of 0.8 mm. The diameter of the hole in the center was 2.0 mm. The circular infrared beam, which was used to heat up water to increase the temperature, from a continuous-wave diode laser at 1550 nm was focused with two convex lenses (f=100.0 mm; f=75.6 mm) to a diameter of 1.6 mm before entering the sample cell. […] The fluorescence was collected using a MicroSpot Focusing Objective (LMU-20X-NUV, THORLABS®, 325-500 nm) and later focused through a 200 μm pinhole by a lens (f=50.0 mm) to an optical fiber (300-1,200 nm). Thereafter, the collected fluorescence light was introduced to a photomultiplier tube and filtered using an optical filter to define the detection range at 300-445 nm. The voltage signal from the photomultiplier was amplified by a factor of 20 using a voltage pre-amplifier, and further recorded using an oscilloscope.
The photobleaching-induced fluorescence decrease should be considered in the evolution of the fluorescence intensity change of Aβ42 and LPS-A342 upon T jump. […]

Molecule: O=C(O[C@@H]1Cc2c(O)cc(O)cc2O[C@@H]1c1cc(O)c(O)c(O)c1)c1cc(O)c(O)c(O)c1 [EG, epigallocatechin gallate]
effect on the oscillatory event (lifetime) of the LPS-Aβ42 complex [1]: did not perturb the oscillatory event | residual Aβ42 levels from the total lysate [2]: not observed; also recorded: no impact on the degradation of Aβ42 | rescue of Aβ42-induced cell death by small baits alone ([3]; Aβ42 100 μM): could not alleviate Aβ42-induced cell death

Molecule: O=c1c(O)c(-c2cc(O)c(O)c(O)c2)oc2cc(O)cc(O)c12 [myricetin]
effect on the oscillatory event (lifetime) of the LPS-Aβ42 complex [1]: did not perturb the oscillatory event

Molecule: CCN(CC)CCCC(C)Nc1c2ccc(Cl)cc2nc2ccc(OC)cc12 (centres unmarked) [quinacrine dihydrochloride]
effect on the oscillatory event (lifetime) of the LPS-Aβ42 complex [1]: did not perturb the oscillatory event

Molecule: O=C(OC[C@H]1O[C@@H](OC(=O)c2cc(O)c(O)c(OC(=O)c3cc(O)c(O)c(O)c3)c2)[C@H](OC(=O)c2cc(O)c(O)c(OC(=O)c3cc(O)c(O)c(O)c3)c2)[C@@H](OC(=O)c2cc(O)c(O)c(OC(=O)c3cc(O)c(O)c(O)c3)c2)[C@@H]1OC(=O)c1cc(O)c(O)c(OC(=O)c2cc(O)c(O)c(O)c2)c1)c1cc(O)c(O)c(OC(=O)c2cc(O)c(O)c(O)c2)c1 [tannic acid]
effect on the oscillatory event (lifetime) of the LPS-Aβ42 complex [1]: did not perturb the oscillatory event

Molecule: Lipopolysaccharide [LPS]
lifetime of mass oscillation ([1]; LPS anchored on sensor, Aβ42, FSM, no bait): less than 30 min | effect on secondary structure of Aβ42 (CD spectra) [4]: does not initiate the unfolding of the secondary structure of Aβ42 | effect on thermally induced protein dynamics of Aβ42 [5]: retarded the upward response | cell viability ([3]; LPS of Aβ42 solution removed): less than 10% | viability of neuronal cells in medium containing Aβ42 ([3]; high dose (1000 nM) of LPS, Aβ42 100 μM): 100%

Molecule: chondroitin sulfate sodium [CS]
effect on the oscillatory event (lifetime) of the LPS-Aβ42 complex [1]: shortened the binding event; also recorded: shortening | residual Aβ42 levels from the total lysate [2]: not observed; also recorded: no impact on the degradation of Aβ42 | rescue effect of Aβ42-induced cell apoptosis ([3]; Aβ42 100 μM): not observed | rescue of Aβ42-induced cell death by small baits alone ([3]; Aβ42 100 μM): could not alleviate Aβ42-induced cell death

Second part, led by results:

effect on the oscillatory event (lifetime) of the LPS-Aβ42 complex [1]: did not perturb the oscillatory event
Molecule: COc1cc(/C=C/C(=O)CC(=O)/C=C/c2ccc(O)c(OC)c2)ccc1O [curcumin]

ln(γ) ([1]; [morin] 20 nM): 2.75 | Δt = tw/morin − tw/o morin ([1]; [morin] 20 nM): 63 s | γ (lifetime increment percentage) ([1]; [morin] 20 nM): 15.7% | time (apparent lifetime of the non-equilibrium interaction) ([1]; [morin] 20 nM): 465 s | ln(γ) ([1]; [morin] 50 nM): 3.47 | Δt = tw/morin − tw/o morin ([1]; [morin] 50 nM): 129 s | γ (lifetime increment percentage) ([1]; [morin] 50 nM): 32.1% | time (apparent lifetime of the non-equilibrium interaction) ([1]; [morin] 50 nM): 531 s | ln(γ) ([1]; [morin] 100 nM): 4.22 | Δt = tw/morin − tw/o morin ([1]; [morin] 100 nM): 275 s | γ (lifetime increment percentage) ([1]; [morin] 100 nM): 68.4% | time (apparent lifetime of the non-equilibrium interaction) ([1]; [morin] 100 nM): 677 s | ln(γ) ([1]; [morin] 200 nM): 4.42 | Δt = tw/morin − tw/o morin ([1]; [morin] 200 nM): 335 s | γ (lifetime increment percentage) ([1]; [morin] 200 nM): 83.3% | time (apparent lifetime of the non-equilibrium interaction) ([1]; [morin] 200 nM): 737 s | n, power to which bait concentration is taken (slope of ln(γ) versus ln([morin])) ([1]; linear regression of Table S1 data): 0.76±0.10
Molecule: O=c1c(O)c(-c2ccc(O)cc2O)oc2cc(O)cc(O)c12 [morin]
effect on the oscillatory event (lifetime) of the LPS-Aβ42 complex [1]: extended; also recorded: significant prolongation; also recorded: significant time extension; also recorded: prolonged in a dose-dependent manner | residual Aβ42 levels from the total lysate [2]: significantly decreased; also recorded: dose-dependent depletion of Aβ42 | rescue effect of Aβ42-induced cell apoptosis ([3]; Aβ42 100 μM): in a dose-dependent manner; also recorded: could be observed | rescue of Aβ42-induced cell death by small baits alone ([3]; Aβ42 100 μM): could not alleviate Aβ42-induced cell death

effect on the oscillatory event (lifetime) of the LPS-Aβ42 complex [1]: did not perturb the oscillatory event
Molecule: O=C(/C=C/c1ccc(O)c(O)c1)O[C@H](Cc1ccc(O)c(O)c1)C(=O)O [rosmarinic acid]
